The values that follow come from ChEMBL document CHEMBL1129080, “Synthesis, physicochemical properties, and biological evaluation of hydroxypyranones and hydroxypyridinones: novel bidentate ligands for cell-labeling” (J Med Chem, 1996).

SMILES strings stand for the structures.

This data set in a line: Compound was tested for their chelating potential (free ligand) determined by distribution coefficient method. In kind it is ADME. Conditions: octanol/water; for logD: read-out: mean log D.

Take `Cc1cc(=O)c(O)co1`: the logD is -0.59. On the same count and under the same terms, in the case of `CCOCc1cc(=O)c(O)co1` it was -0.38. `CCCCc1oc(C)cc(=O)c1O`: the logD was determined as 1.92.

With `COCc1cc(=O)c(O)co1`, the logD was -0.62. Consider `NCCn1ccc(=O)c(O)c1`, for which the logD is -0.66. Still for that read-out and setting: in the case of `Cc1cc(=O)c(O)c(C)o1` it was 0.44; in that of `CCCc1oc(C)cc(=O)c1O`, 1.4.

As for `CCn1cccc(O)c1=O`, the logD was 0.2.

For `CCc1oc(C)cc(=O)c1O`, the logD is 1.07. The same measure, in the same setting: in the case of `CCCCOCc1cc(=O)c(O)co1` it was 0.78.

As to `CCCOCc1cc(=O)c(O)co1`, the logD stood at 0.3. Turning to `CCCCn1cccc(O)c1=O`, the logD was determined as 1.18.

As for `CCCn1cccc(O)c1=O`, the logD amounted to 0.69.

For `Cn1cccc(O)c1=O`, the logD is -0.28. Take `CCCCCn1ccc(=O)c(O)c1C`: the “mean log D” value is 1.24.

`CCCCn1ccc(=O)c(O)c1C`: the logD turned out to be 0.71. For the compound `CCCCCCn1ccc(=O)c(O)c1C`, the “mean log D” value was determined as 1.9. For the compound `O=c1ccocc1O`, the logD is -0.92. Same read-out and setting: then `CCc1occc(=O)c1O` [E637], with 0.63.

On to `Cc1occc(=O)c1O` [MALTOL], for which the logD is 0.05. With `Oc1cccc2cccnc12` [OXYQUINOLINE], the logD was found to be 1.87. The same measure, in the same setting: then `O=c1cccccc1O` [TROPOLONE], with -0.14.
